The target of series [1] is FPTase (farnesyl-protein transferase) with H-Ras as substrate for farnesylation (UniProt P29702+P49355). Put plainly: in vitro FTase Inhibition Assay (H-Ras substrate). The format is biochemical. On the procedure:
Enzyme assay: FPTase inhibition in vitro assay was performed according to James, G. L., Brown, M. S., and Goldstein, J. L., Methods in Enzymology, 1995, 255, 38-46; and Garcia, M. A., et al., J. Biol. Chem., 1993, 268,18415-18420.
Materials—Purified FPTase (Moomaw, J. F. and Casey, P. J., J. Biol. Chem., 1992, 267, 17438-17443), purified His6-Ras, inhibitor compounds at 10 mg/ml or 10 mM in 100% DMSO, ^3H-FPP (50,000 dpm/pmol) Amersham, TCA/SDS (6%/2%), TCA (6%), Glass fiber filters ([…]), vacuum manifold or 96 well filtration plates.
Methods—1. Dilute FPTase inhibitors from stock solutions to 2.5× in 2.5% DMSO, 10 mM DTT, 0.5% octyl-B-glucoside. 2. Solution #1 is added to FPTase reaction in a volume of […]. 3. Standard reaction mix, […], contains 50 mM Tris (7.5),[…], 3 mM MgCl2, 20 mM KCl, 5 mM DTT, 0.2% octyl-B-glucoside, 1% DMSO, […], 10 ng FPTase, and various concentrations of FPTase inhibitors. 4. Incubate for 30-90 min at 25° C. 5. Stop reactions with TCA/SDS (6%/2%), hold at 4° C. for 45-60 min. 6. Filter by manifold or 96 well plate, wash filter 3-5× with TCA (6%). 7. Add scintillant to filters, measure ^3H-FPP incorporation into Ras protein.
Analysis of Results—Percent inhibition by test compounds is determined by the following:
(cpm from precipitated Ras with test compounds)−(background cpm)×100=% inhibition.
(cpm from precipitated Ras without test compounds)−(background cpm)

For `Cc1ccc(S(=O)(=O)C2(Cc3ccc(OCCc4nc(-c5ccccc5)oc4C)cc3)SC(=O)NC2=O)cc1` (stereo not drawn) [Example 1, 5-(4-[2-(5-Methyl-2-phenyloxazol-4-yl)ethoxy]benzyl)-5-(4-methylbenzenesulfonyl)thiazolidine-2,4-dione], the melting point (commonly the temperature, or range, at which the solid turns liquid) was in the range of 202 to 204 °C. For the same compound, in series [1], the half-maximal inhibitory concentration (IC50) (as a rule, the point on the concentration scale where inhibition reaches its midpoint) is 2.25 µM.
In the same order, the values of `Cc1ccc(S(=O)(=O)C2(Cc3ccc(Br)cc3F)SC(=O)NC2=O)cc1` (stereo not drawn) [Example 2, 5-(4-Bromo-2-fluorobenzyl)-5-(4-methylbenzenesulfonyl)thiazolidine-2,4-dione] are 236 to 237 °C and 6.5 µM.
`Cc1ccc(S(=O)(=O)C2(Cc3ccc(Cl)c(Cl)c3)SC(=O)NC2=O)cc1` (stereo not drawn) [Example 3, 5-(3,4-Dichlorobenzyl)-5-(4-methylbenzenesulfonyl)thiazolidine-2,4-dione] registered a melting point of 183 to 184 °C. The “Activity* (% inhib. at 10 μM)” value in series [1] is “(1%)”.
The like results for `O=C1NC(=O)C(Cc2ccc(Br)cc2F)(S(=O)(=O)c2ccc3ccccc3c2)S1` (stereo not drawn) [Example 4, 5-(4-Bromo-2-fluorobenzyl)-5-(naphthalene-2-sulfonyl)thiazolidine-2,4-dione] were, in that order, 195 to 197 °C and “(1%)”.
For `Cc1oc(-c2ccccc2)nc1CCOc1ccc(CC2(S(=O)(=O)c3ccc4ccccc4c3)SC(=O)NC2=O)cc1` (stereo not drawn) [Example 5, 5-(4-[2-(5-Methyl-2-phenyloxazol-4-yl)ethoxy]benzyl)-5-(naphthalene-2-sulfonyl)thiazolidine-2,4-dione], the melting point fell in the range of 133 to 136 °C. In addition, the “Activity* (% inhib. at 10 μM)” value in series [1] is “(−2%)”.
The like results for `COc1ccc(S(=O)(=O)C2(Cc3ccccc3)SC(=O)NC2=O)cc1` (stereo not drawn) [Example 6, 5-Benzyl-5-(4-methoxybenzenesulfonyl)thiazolidine-2,4-dione] were, in that order, 146 to 152 °C and “(21%)”.
In series [1], `COc1ccc(S(=O)(=O)C2(Cc3ccccc3)SC(=O)N(CC(=O)NO)C2=O)cc1` (stereo not drawn) [Example 7, 2-[5-Benzyl-5-(4-methoxybenzenesulfonyl)-2,4-dioxothiazolidin-3-yl]-N-hydroxyacetamide] gave a concentration for half-maximal inhibition (IC50) of 2.5 µM.
For the compound `COc1ccc(C2(c3cccc(CC4(Sc5ccc(C)cc5)SC(=O)NC4=O)c3)OCCO2)cc1` (stereo not drawn) [Example 8, 5-(3-[2-(4-Methoxyphenyl)[1,3]dioxolan-2-yl]benzyl)-5-(4-methylbenzenesulfanyl)thiazolidine-2,4-dione], the 50% inhibitory concentration (IC50) in series [1] turned out to be 1.3 µM.
The same measure, in the same setting: the figure for `COc1ccc(C2(c3cccc(CC4(S(=O)(=O)c5ccc(C)cc5)SC(=O)NC4=O)c3)OCCO2)cc1` (stereo not drawn) [Example 9, 5-(3-[2-(4-Methoxyphenyl)[1,3]dioxolan-2-yl]benzyl)-5-(4-methylbenzenesulfonyl)thiazolidine-2,4-dione] is 1.2 µM; for `COc1ccc(C(=O)c2cccc(CC3(S(=O)(=O)c4ccc(C)cc4)SC(=O)NC3=O)c2)cc1` (stereo not drawn) [Example 10, 5-(3-(4-methoxybenzoyl)benzyl)-5-(4-methylbenzenesulfonyl)thiazolidine-2,4-dione] it is 4.25 µM; for `COc1ccc(C(=O)c2cccc(CC3(Sc4ccc(C)cc4)SC(=O)NC3=O)c2)cc1` (stereo not drawn) [Example 11, 5-(3-(4-methoxybenzoyl)benzyl)-5-(4-methylbenzenesulfanyl)thiazolidine-2,4-dione] it is 2.5 µM.
For the compound `COc1ccc(C(O)c2cccc(CC3(Sc4ccc(C)cc4)SC(=O)NC3=O)c2)cc1` (stereo not drawn) [Example 12, 5-(3-[Hydroxy(4-methoxyphenyl)methyl]-benzyl)-5-(4-methylbenzenesulfanyl)thiazolidine-2,4-dione], in series [1], it took 3.7 µM to reach half-maximal inhibition (IC50). This IC50 and that of the compound before are within 1.5-fold of each other.
Turning to `Cc1ccc(S(=O)(=O)C2(Cc3ccc(Br)cc3)SC(=O)NC2=O)cc1` (stereo not drawn) [Example 13], in series [1], the “Activity* (% inhib. at 10 μM)” value is on record as “(28%)”.
The compound `Cc1ccc(S(=O)(=O)C2(Cc3ccc(-c4ccccc4C#N)cc3)SC(=O)NC2=O)cc1` (stereo not drawn) [Example 14, 5-[2′-cyanobiphen-4-ylmethyl]-5-(4-methylbenzenesulfonyl)thiazolidine-2,4-dione] showed an IC50 in series [1] of 0.077 µM.
`Cc1ccc(S(=O)(=O)C2(Cc3ccc(-c4ccccc4-c4nnn[nH]4)cc3)SC(=O)NC2=O)cc1` (stereo not drawn) [Example 15, 5-[2′-(1H-Tetrazol-5-yl)biphen-4-ylmethyl]-5-(4-methylbenzenesulfonyl)thiazolidine-2,4-dione]: in series [1], the “Activity* (% inhib. at 10 μM)” value is reported as “(4%)”.
In series [1], `COc1ccc(S(=O)(=O)C2(Cc3ccc(-c4ccccc4C#N)cc3)SC(=O)NC2=O)cc1` (stereo not drawn) [Example 16, 5-[2′-cyanobiphen-4-ylmethyl]-5-(4-methoxybenzenesulfonyl)thiazolidine-2,4-dione] came in with a half-maximal inhibitory concentration (IC50) of 0.35 µM.
`COc1ccc(Cc2cccc(CC3(Sc4ccc(C)cc4)SC(=O)NC3=O)c2)cc1` (stereo not drawn) [Example 17, 5-[3-(4-Methoxybenzyl)benzyl]-5-(4-methylbenzenesulfanyl)thiazolidine-2,4-dione] came in with a half-inhibitory concentration (IC50) in series [1] of 2.9 µM. This IC50 lies about 8.3-fold higher than the previous one.
The same measure, in the same setting: the figure for `Cc1ccc(SC2(Cc3cccc(C4(c5cccs5)OCCO4)c3)SC(=O)NC2=O)cc1` (stereo not drawn) [Example 18, 5-[3-(2-Thiophen-2-yl[1,3]dioxolan-2-yl)benzyl]-5-(4-methylbenzenesulfanyl)thiazolidine-2,4-dione] is 4.5 µM; for `Cc1ccc(SC2(Cc3cccc(C(=O)c4cccs4)c3)SC(=O)NC2=O)cc1` (stereo not drawn) [Example 19, 5-[3-(Thiophene-2-carbonyl)benzyl]-5-(4-methylbenzenesulfanyl)thiazolidine-2,4-dione] it is 2.8 µM.
For the compound `COc1ccc(S(=O)(=O)C2(Cc3ccc(-c4ccccc4)cc3)SC(=O)NC2=O)cc1` (stereo not drawn) [Example 20, 5-Biphen-4-ylmethyl-5-(4-methoxybenzenesulfonyl)thiazolidine-2,4-dione], the melting point lay in the range of 119 to 122 °C. This compound returned an IC50 in series [1] of 1.7 µM.
`COc1ccc(S(=O)(=O)C2(Cc3ccc(-c4ccc(Cl)cc4)cc3)SC(=O)NC2=O)cc1` (stereo not drawn) [Example 21, 5-(4′-Chlorobiphen-4-ylmethyl)-5-(4-methoxybenzenesulfonyl)thiazolidine-2,4-dione] gave a melting point of 197 to 200 °C. This compound showed a half-inhibitory concentration (IC50) in series [1] of 1 µM.
As to `COc1ccc(S(=O)(=O)C2(Cc3ccc(-c4cccc(C(F)(F)F)c4)cc3)SC(=O)NC2=O)cc1` (stereo not drawn) [Example 22, 5-(4-Methoxybenzenesulfonyl)-5-(3′-(trifluoromethyl)biphen-4-ylmethyl)thiazolidine-2,4-dione], in series [1], the concentration for half-maximal inhibition (IC50) came out at 2.5 µM.
Compound `COc1ccc(S(=O)(=O)C2(Cc3ccc(-c4cc(C(F)(F)F)cc(C(F)(F)F)c4)cc3)SC(=O)NC2=O)cc1` (stereo not drawn) [Example 23, 5-(3′,5′-Bis(trifluoromethyl)biphen-4-ylmethyl)-5-(4-methoxybenzenesulfonyl)thiazolidine-2,4-dione] yielded a melting point of 122 to 125 °C. This compound also yielded an IC50 in series [1] above 10 µM.
Take `COc1ccc(S(=O)(=O)C2(Cc3ccc(-c4ccc(Cl)cc4Cl)cc3)SC(=O)NC2=O)cc1` (stereo not drawn) [Example 24, 5-(2′,4′-Dichlorobiphen-4-ylmethyl)-5-(4-methoxybenzenesulfonyl)thiazolidine-2,4-dione]: the melting point lay in the range of 104 to 107 °C. In series [1], this compound came in with an IC50 of 0.74 µM.
In the case of `Cc1ccc(SC2(Cc3cccc(Oc4cccc(Cl)c4)c3)SC(=O)NC2=O)cc1` (stereo not drawn) [Example 25, 5-[3-(3-Chlorophenoxy)benzyl]-5-(4-methylbenzenesulfanyl)thiazolidine-2,4-dione], in series [1], the IC50 turned out to be 3.5 µM.
`Cc1ccc(S(=O)(=O)C2(Cc3cccc(C4(c5cccs5)OCCO4)c3)SC(=O)NC2=O)cc1` (stereo not drawn) [Example 26, 5-[3-(2-thiophen-2-yl[1,3]dioxolan-2-yl)benzyl]-5-(4-methylbenzenesulfonyl)thiazolidine-2,4-dione] yielded an IC50 in series [1] of 6 µM. Compared with the last compound, the IC50 is about 1.7-fold higher.

Values taken from patent US6716862B2, “5-(Substituted)-5-(substitutedsulfonyl or sulfanyl) thiazolidine-2,4-diones useful for inhibition of farnesyl-protein transferase” (Wyeth Holdings Corporation, priority 2001, dated 2004).
